For series [1], the system named is cholinesterase (ChE). The following applies: cited from earlier work.
The test system of series [2] is scopolamine-induced impairment in learning performance of rats. The arrangement: species or system male Fischer-344 rats. The following applies: rat, in vivo.
The subject of series [3] is brain and plasma AChE and BChE. The note with it: cited from earlier work.
The conditions of series [4]: in vivo; cited from earlier work.
The test system of series [5] is neuromuscular AChR. The following applies: cited from earlier work.
Series [6] relates to plasma AChE. The class given is in vivo, Fischer-344 rats.
For series [7], the system named is patients with Alzheimer's disease. The following applies: human, in vivo; cited from earlier work.
Series [8] has as its system scopolamine-induced impairment in learning performance of rats. The note with it: rat, in vivo; cited from earlier work.
Series [9] has as its system acetylcholine in brain. The following applies: in vivo; cited from earlier work.
Series [10] has as its system performance deficits induced by scopolamine. The note with it: in vivo; cited from earlier work.
Series [11] has as its system cholinesterase. The following applies: cited from earlier work.
The test system of series [12] is memory consolidation in mice. The note with it: mouse, in vivo; cited from earlier work.
The test system of series [13] is human acetylcholinesterase (AChE). It counts as biochemical.
In series [14] the target is human acetylcholinesterase (AChE). The note with it: read-out: IC50 against human AChE; cited from earlier work.
For series [15] the following is noted: in vivo.
For series [16] the following is noted: rat, in vivo.
Series [17] deals with human butyrylcholinesterase (BChE). The following applies: read-out: IC50 against human BChE; cited from earlier work.

Molecules are shown by their SMILES. “Also recorded” adds a separate entry of the source.

The source of these data is patent publication US5409948A (priority 1992, dated 1995).

One may read the LD50 as the dose at which mortality reaches 50%. The term IC50 denotes the point on the concentration scale where inhibition reaches its midpoint.

In the case of `CNC(=O)Oc1ccc2c(c1)[C@@]1(C)CCN(C)[C@H]1N2C` [(+)-physostigmine], the inhibition of cholinesterase entry in series [1] is “negligible inhibition; also recorded: negligible ChE inhibitory activity”.
As to `CNC(=O)Oc1ccc2c(c1)[C@]1(C)CCN(C)[C@@H]1N2C` [Physostigmine], the “activity in 14-unit T-maze model, in words” value in series [2] is given as “no significant activity in this model”. Further, the “IC50 of brain vs plasma AChE and BChE” value in series [3] is given as “similar”. For the same compound, in [4], the LD50 is given as 0.6 mg/kg. Besides, in [5], the “properties at the neuromuscular AChR” value is reported as “blocking properties as well as agonist properties”. In series [6] (rat, in vivo), the “AChE inhibition at 60 minutes” value is reported as “negligible” and the “AChE inhibition, immediate” value is “approximately 50%”. Moreover, in series [7], the “pharmacological half life in patients” value was “short pharmacological half life”.
For the compound `CN1[C@@H]2C[C@@H](OC(=O)[C@H](CO)c3ccccc3)C[C@H]1[C@@H]1O[C@@H]12` [SCOP, reference compound], in [2], the “all five measures of the maze task” value is on record as “significantly worse performance in all five measures of the maze task”.
As for `Nc1c2c(nc3ccccc13)CCCC2` [THA, tetrahydroaminoacridine], the “toxicity in Alzheimer's patients” value in series [7] is “causes toxicity”.
In the case of `CCCCCCCNC(=O)Oc1ccc2c(c1)[C@]1(C)CCN(C)[C@@H]1N2C` [heptyl-Phy], in series [8], the alternation error performance entry was “lack of improvement”, the “learning impairment of SCOP-treated rats” value is “failed to ameliorate the learning impairment”, the number of errors result is reported as “significantly reduced the number of errors” and the “scopolamine-induced learning impairment of rats” value is “attenuated the scopolamine-induced learning impairment”. Besides, in [2], the “activity in 14-unit T-maze model, in words” value is “inferior to phenserine”; the “mean errors per trial at each block of three trials” value is reported as “reduced error performance compared to the SCOP group”; the “mean errors per trial for 15 trials” value is recorded as “significantly (P<0.05) better performance than the SCOP group”; the “ratio of alternation errors per trial to opportunities” value is listed as “no significant effect”. Also, in [9], the “increases in acetylcholine in brain vs parent compound” value was “more persistent increases in acetylcholine in brain”. In addition, in series [4], the “toxicity vs parent compound” value is “less toxicity than the parent compound”. For the same compound, in [10], the “performance deficits induced by scopolamine” value is on record as “reverses the performance deficits induced by scopolamine”. In addition, the “inhibitory action on cholinesterase vs parent compound” value in series [11] is recorded as “longer inhibitory action on cholinesterase”. The memory consolidation entry in series [12] is “facilitates memory consolidation in mice”.
`CN1CC[C@@]2(C)c3cc(OC(=O)Nc4ccccc4)ccc3N(C)[C@@H]12` [phenserine, (-)-N-phenylcarbamoyl eseroline]: in [2], the SCOP-induced learning impairment result is “significantly attenuated the SCOP-induced learning impairment”; the alternation error ratio entry was “only 10.0 and 1.5 mg/kg doses of phenserine improved alternation error performance at blocks 4 and 5 and block 5, respectively; also recorded: only the 10.0 and 1.5 mg/kg doses of phenserine reduced the ratio significantly at blocks 4 and 5 and block 5, respectively”; the error performance entry was “all but the 7.5 mg/kg dose of phenserine significantly ameliorated error performance”; the “error performance at blocks 4 and 5” value was “improved error performance at maze training blocks 4 and 5 except the 7.5 mg/kg dose”. Moreover, in [2], the “number of errors at block 4” value is “reduced significantly at block 4 by all but the 7.5 mg/kg dose”; the runtime result is listed as “all but the 7.5 mg/kg dose of phenserine significantly ameliorated error performance, runtime”; the shock duration result was “all but the 7.5 mg/kg dose of phenserine significantly ameliorated error performance, runtime, shock frequency and shock duration”; the shock frequency entry is “all but the 7.5 mg/kg dose of phenserine significantly ameliorated error performance, runtime, shock frequency”. In addition, the therapeutic window entry in [2] is listed as “wide therapeutic window”. Further, the “time after i.p. administration at which improvement of learning performance was observed” value in series [2] (ip) was “more than 1 hour”. Moreover, the “selectivity of anticholinesterase action (AChE vs BChE)” value in series [13] is listed as “high selectivity of anticholinesterase action”. Moreover, the IC50 in [14] was 24 ± 6 nM. Moreover, in [15], the “LD50 (in words)” value is on record as “substantially higher than that of physostigmine itself”, the central tremor result was “a slight central tremor is evident” and the toxicity or deaths entry was “have not been associated with toxicity or deaths”. The “AChE inhibition at 8 hours” value in [6] (at 8 hours) amounted to 43.0%. Also, in series [6] (rat, in vivo), the “AChE inhibition and its duration, in words” value was “long, steady state inhibition of AChE at very low and non-toxic doses”; the “AChE inhibition compared to physostigmine” value was “dramatically higher inhibition of AChE at a lower dose”; the “duration of high and relatively constant AChE inhibition” value is reported as “more than 8 hours”; the “maximum AChE inhibition” value turned out to be 73.5%. In addition, in series [16], the activity of animals result is reported as “seemed less active than at other doses”; the behavior of animals result is “very aggressive and difficult to handle”; the “peripheral cholinergic effects, such as salivation and diarrhea” value is recorded as “not noticed at any doses tested”; the side effects result is “chewing, grooming, and wet dog shakes”. For the same compound, the “toxic side effects without peripheral cholinergic inhibitors” value in [16] was “large doses can be administered without toxic side effects”. The 50% inhibitory concentration (IC50) in [17] is 1300 ± 8.5 nM.
